Source: US20050176784A1, “Malononitrile compounds and their use as pesticides” (priority 2002, published 2005)

Legend:
Format in all cases: in vivo
Blattella germanica = assay: Test Example 4: filter paper with sucrose bait, Blattella germanica imagoes; conditions: 144 h, 0.7 ml on filter paper, two male imagoes, after 6 days, read-out: rate of dead pests
Method: The formulation obtained according to Formulation Example 5 using the present invention compounds (1), (4), (8), (9), (11), (12), (13) and (14) respectively, was diluted with water so that the active ingredient concentration came to 500 ppm to prepare a pesticidal solution for test.
(§1) On the bottom of a polyethylene cup having a diameter of 5.5 cm, a filter paper having the same diameter was laid, and 0.7 ml of the above pesticidal solution for test was added dropwise on the filter paper, followed by putting 30 mg of sucrose on it uniformly as a bait. Two male Blattella germanica imagoes were set free in the polyethylene cup and covered it with a lid. After 6 days, the number of surviving Blattella germanica was examined and the rate of dead pests was calculated.

Musca domestics = assay: Test Example 3: filter paper with sucrose bait, Musca domestica imagoes; conditions: 0.7 ml on filter paper, ten female imagoes, after 24 hours, read-out: rate of dead pests
Method: The formulation obtained according to Formulation Example 5 using the present invention compounds (1), (2), (4), (8), (9), (10), (11), (13), (14) and (15) respectively, was diluted with water so that the active ingredient concentration came to 500 ppm to prepare a pesticidal solution for test.
as §1, with “Ten female Musca domestics” for “Two male Blattella germanica”, “24 hours,” for “6 days,”, “Musca domestics” for “Blattella germanica”

Culex pipiens pallens = assay: Test Example 5: larvae in treated water, Culex pipiens pallens; conditions: 24 h, active ingredient concentration 3.5 ppm in water, twenty last-instar larvae, after one day, read-out: rate of dead pests
Method: The formulation obtained according to Formulation Example 5 using the present invention compounds (3), (4), (8), (9), (10), (11), (12), (13), (14) and (15) respectively, was diluted with water so that the active ingredient concentration came to 500 ppm to prepare a pesticidal solution for test. 0.7 ml of above pesticidal solution for test was added to 100 ml of ion exchanged water (active ingredient concentration: 3.5 ppm). Twenty last-instar larvae of Culex pipiens pallens were set free in the solution. After one day, the number of surviving Culex pipiens pallens was examined and the rate of dead pests was calculated.

SMILES: N#CC(C#N)(CCC(F)(F)F)Cc1ccc(Cl)nc1 [Compound 4, 2-((6-Chloro-3-pyridyl)methyl)-2-(3,3,3-trifluoropropyl)malononitrile]
- pest or weed control at 500 ppm (Blattella germanica): 100%
- pest or weed control at 500 ppm (Musca domestics): ≥ 90%
- pest or weed control at 3.5 ppm (Culex pipiens pallens): 100%

SMILES: N#CC(C#N)(CCC(F)(F)F)Cc1cnc(Cl)c(Cl)c1 [Compound 15, 2-((5,6-dichloro-3-pyridyl)methyl)-2-(3,3,3-trifluoropropyl)malononitrile]
- pest or weed control at 500 ppm (Musca domestics): ≥ 90%
- pest or weed control at 3.5 ppm (Culex pipiens pallens): 100%

SMILES: N#Cc1ccc(CC(C#N)(C#N)CCC(F)(F)F)cn1 [Compound 12, 2-((6-cyano-3-pyridyl)methyl)-2-(3,3,3-trifluoropropyl)malononitrile]
- pest or weed control at 500 ppm (Blattella germanica): 100%
- pest or weed control at 3.5 ppm (Culex pipiens pallens): 100%

SMILES: N#CC(C#N)(CCC(F)(F)F)Cc1cccc(Cl)n1 [Compound 8, 2-((6-chloro-2-pyridyl)methyl)-2-(3,3,3-trifluoropropyl)malononitrile]
- pest or weed control at 500 ppm (Blattella germanica): 100%
- pest or weed control at 500 ppm (Musca domestics): ≥ 90%
- pest or weed control at 3.5 ppm (Culex pipiens pallens): 100%

SMILES: C#Cc1ccc(CC(C#N)(C#N)CCC(F)(F)F)cn1 [Compound 11, 2-((6-ethynyl-3-pyridyl)methyl)-2-(3,3,3-trifluoropropyl)malononitrile]
- pest or weed control at 500 ppm (Blattella germanica): 100%
- pest or weed control at 500 ppm (Musca domestics): ≥ 90%
- pest or weed control at 3.5 ppm (Culex pipiens pallens): 100%

SMILES: N#CC(C#N)(CCC(F)=C(F)F)Cc1ccc(Cl)nc1 [Compound 3, 2-((6-Chloro-3-pyridyl)methyl)-2-(3,4,4-trifluoro-3-butenyl)malononitrile]
- pest or weed control at 3.5 ppm (Culex pipiens pallens): 100%

SMILES: N#CC(C#N)(CCC(F)(F)F)Cc1ccc(Br)nc1 [Compound 10, 2-((6-bromo-3-pyridyl)methyl)-2-(3,3,3-trifluoropropyl)malononitrile]
- pest or weed control at 500 ppm (Musca domestics): ≥ 90%
- pest or weed control at 3.5 ppm (Culex pipiens pallens): 100%

SMILES: N#CC(C#N)(CCC(F)(F)F)Cc1ccc(F)nc1 [Compound 13, 2-((6-fluoro-3-pyridyl)methyl)-2-(3,3,3-trifluoropropyl)malononitrile]
- pest or weed control at 500 ppm (Blattella germanica): 100%
- pest or weed control at 500 ppm (Musca domestics): ≥ 90%
- pest or weed control at 3.5 ppm (Culex pipiens pallens): 100%

SMILES: N#CC(C#N)(CCC(F)(F)F)Cc1ccc(C(F)(F)F)nc1 [Compound 9, 2-((6-(trifluoromethyl)-3-pyridyl)methyl)-2-(3,3,3-trifluoropropyl)malononitrile]
- pest or weed control at 500 ppm (Blattella germanica): 100%
- pest or weed control at 500 ppm (Musca domestics): ≥ 90%
- pest or weed control at 3.5 ppm (Culex pipiens pallens): 100%

SMILES: C=CCC(C#N)(C#N)Cc1ccc(Cl)nc1 [Compound 1, 2-allyl-2-((6-Chloro-3-pyridyl)methyl)malononitrile]
- pest or weed control at 500 ppm (Blattella germanica): 100%
- pest or weed control at 500 ppm (Musca domestics): ≥ 90%

SMILES: C=CCC(C#N)(C#N)C(C#N)c1ccc(Cl)nc1 (stereo not shown) [Compound 2, 1-(6-Chloro-3-pyridyl)-1,2,2-tricyano-4-pentene]
- pest or weed control at 500 ppm (Musca domestics): ≥ 90%

SMILES: N#CC(C#N)(CCC(F)(F)F)Cc1cccc(Br)n1 [Compound 14, 2-((6-bromo-2-pyridyl)methyl)-2-(3,3,3-trifluoropropyl)malononitrile]
- pest or weed control at 500 ppm (Blattella germanica): 100%
- pest or weed control at 500 ppm (Musca domestics): ≥ 90%
- pest or weed control at 3.5 ppm (Culex pipiens pallens): 100%
